Test results published in patent US10798943B2, “Use of 6-anilino purine derivatives to improve heat stress tolerance of rice seedlings” (SYNGENTA PARTICIPATIONS AG, priority 2016, dated 2020).

Experiments:
Assay type in all cases: in vivo
[1] = test system: rice seedlings (hybrid rice variety ADT45) under heat stress; test: Transplant shock stress, visual assessment of damage severity, Ramapuram trial; conditions: for Transplanting shock stress (8th day) / Transplanting shock stress (12th day) / Transplanting shock stress (4th day): Ramapuram
Text: (§1) Trials were setup in two locations in India to test the effect of compounds of formula I on tolerance of rice seedlings to heat stress during transplantation.
(§2) For each trial, hybrid rice variety ADT45 was sown in seedling boxes. A compound of formula (Ia) was applied by foliar spray in the form of an EC formulation, at various dose rates and seedling growth stages as shown in Table 1.
(§3) Transplanting took place at the […] growth stage. Transplant shock was used as an indicator of tolerance to heat stress, and was measured via visual assessment of damage severity on a scale of 0% (no damage) to 100% (dead plant); observations such as yellowing and leaf tip burning are indicators of damage. Transplant shock was also assessed by measuring NVDI values using a Green Seeker™ crop sensor, which measures the percentage green area. A low transplant shock stress rating and high NVDI rating indicate improved tolerance to transplant shock stress.
(§4) The trial was carried out between 5 Aug. 2015 and 9 Sep. 2015, with transplanting on 15 Aug. 2015. The mean maximum daily temperature during the trial period was 35.3° C., and mean minimum daily temperature during the trial period was 23.7° C. The mean temperature during the entire trial period was 30.2° C.

[2] = test system: rice seedlings (hybrid rice variety ADT45) under heat stress; test: Green seeker data, Ramapuram trial; parameters: key: percentage green area (NDVI), higher = better tolerance
Text: as §1, §2, §3, §4

[3] = test system: rice seedlings (hybrid rice variety ADT45); test: Phytotoxicity assessments at Kumbakonam trial; conditions: for Greenness at 3.2 leaf / Seedling height at 3.2 leaf / Seedling injury / Time to 3.2 leaf / Uniformity of foliage growth at 3.2 leaf / Uniformity of greening at 3.2 leaf / Whiteness of root mat at 3.2 leaf: Kumbakonam
Protocol: For each trial, hybrid rice variety ADT45 was sown in seedling boxes. A compound of formula (Ia) was applied by foliar spray in the form of an EC formulation, at various dose rates and seedling growth stages as shown in Table 1. [table] […] The trial was carried out between 7 May 2015 and 15 Jun. 2015, with transplanting on 29 May 2015. The mean maximum daily temperature during the trial period was 37.3° C., and mean minimum daily temperature during the trial period was 24.9° C. The mean temperature during the entire trial period was 31.1° C.

[4] = treatment 2: 5 g ai/ha, Pigeon-breast
[5] = treatment 3: 10 g ai/ha, Pigeon-breast
[6] = treatment 4: 20 g ai/ha, Pigeon-breast
[7] = treatment 6: 10 g ai/ha, 2-leaf
[8] = treatment 7: 20 g ai/ha, 2-leaf
[9] = treatment 9: 10 g ai/ha, 3-leaf
[10] = treatment 10: 20 g ai/ha, 3-leaf

SMILES: COc1cccc(Nc2nc(F)nc3[nH]cnc23)c1 [Formula Ia]
- Tolerance to heat stress / transplant shock stress, comparison of treatments ([1]; Ramapuram trial, treatments 5 and 6 (2-leaf growth stage, 5-10 g ai/ha)): giving the best results
- Transplanting shock stress (8th day) [1, 4]: 12%
- Transplanting shock stress (12th day) [1, 4]: 13%
- Transplanting shock stress (4th day) ([1]; treatment 2: 5 g ai/ha, Pigeon-breast, scale 0% no damage to 100% dead plant): 4%
- Transplanting shock stress (4th day) [1, 5]: 3%
- Transplanting shock stress (8th day) [1, 5]: 7%
- Transplanting shock stress (12th day) [1, 5]: 17%
- Transplanting shock stress (4th day) [1, 6]: 4%
- Transplanting shock stress (8th day) [1, 6]: 8%
- Transplanting shock stress (12th day) [1, 6]: 20%
- Transplanting shock stress (4th day) ([1]; treatment 5: 5 g ai/ha, 2-leaf): 0%
- Transplanting shock stress (8th day) ([1]; treatment 5: 5 g ai/ha, 2-leaf): 2%
- Transplanting shock stress (12th day) ([1]; treatment 5: 5 g ai/ha, 2-leaf): 4%
- Transplanting shock stress (4th day) [1, 7]: 0%
- Transplanting shock stress (8th day) [1, 7]: 1%
- Transplanting shock stress (12th day) [1, 7]: 7%
- Transplanting shock stress (4th day) [1, 8]: 9%
- Transplanting shock stress (8th day) [1, 8]: 8%
- Transplanting shock stress (12th day) [1, 8]: 11%
- Transplanting shock stress (4th day) ([1]; treatment 8: 5 g ai/ha, 3-leaf): 7%
- Transplanting shock stress (8th day) ([1]; treatment 8: 5 g ai/ha, 3-leaf): 12%
- Transplanting shock stress (12th day) ([1]; treatment 8: 5 g ai/ha, 3-leaf): 13%
- Transplanting shock stress (4th day) [1, 9]: 13%
- Transplanting shock stress (8th day) [1, 9]: 20%
- Transplanting shock stress (12th day) [1, 9]: 31%
- Transplanting shock stress (4th day) [1, 10]: 23%
- Transplanting shock stress (8th day) [1, 10]: 37%
- Transplanting shock stress (12th day) [1, 10]: 34%
- Green seeker data (15 DAT afternoon) [2, 4]: 28
- Green seeker data (15 DAT evening) [2, 4]: 31
- Green seeker data (15 DAT morning) [2, 4]: 22
- Green seeker data (15 DAT afternoon) [2, 5]: 25
- Green seeker data (15 DAT evening) [2, 5]: 29
- Green seeker data (15 DAT morning) [2, 5]: 25
- Green seeker data (15 DAT afternoon) [2, 6]: 28
- Green seeker data (15 DAT evening) [2, 6]: 25
- Green seeker data (15 DAT morning) [2, 6]: 21
- Green seeker data (15 DAT afternoon) ([2]; treatment 5: 5 g ai/ha, 2-leaf): 27
- Green seeker data (15 DAT evening) ([2]; treatment 5: 5 g ai/ha, 2-leaf): 34
- Green seeker data (15 DAT morning) ([2]; treatment 5: 5 g ai/ha, 2-leaf): 25
- Green seeker data (15 DAT afternoon) [2, 7]: 29
- Green seeker data (15 DAT evening) [2, 7]: 32
- Green seeker data (15 DAT morning) [2, 7]: 28
- Green seeker data (15 DAT afternoon) [2, 8]: 26
- Green seeker data (15 DAT evening) [2, 8]: 26
- Green seeker data (15 DAT morning) [2, 8]: 22
- Green seeker data (15 DAT afternoon) ([2]; treatment 8: 5 g ai/ha, 3-leaf): 26
- Green seeker data (15 DAT evening) ([2]; treatment 8: 5 g ai/ha, 3-leaf): 30
- Green seeker data (15 DAT morning) ([2]; treatment 8: 5 g ai/ha, 3-leaf): 23
- Green seeker data (15 DAT afternoon) [2, 9]: 26
- Green seeker data (15 DAT evening) [2, 9]: 31
- Green seeker data (15 DAT morning) [2, 9]: 23
- Green seeker data (15 DAT afternoon) [2, 10]: 30
- Green seeker data (15 DAT evening) [2, 10]: 29
- Green seeker data (15 DAT morning) [2, 10]: 25
- Phytotoxic effects to the rice seedlings (summary) ([3]; Kumbakonam trial, some marginal effects at the highest dose rate): did not cause any phytotoxic effects
- Greenness at 3.2 leaf [3, 4]: 3 unit
- Seedling height at 3.2 leaf [3, 4]: 14 cm
- Seedling injury [3, 4]: 0%
- Time to 3.2 leaf [3, 4]: 14 days
- Uniformity of foliage growth at 3.2 leaf [3, 4]: 90%
- Uniformity of greening at 3.2 leaf [3, 4]: 95%
- Whiteness of root mat at 3.2 leaf [3, 4]: 90%
- Greenness at 3.2 leaf [3, 5]: 3 unit
- Seedling height at 3.2 leaf [3, 5]: 13 cm
- Seedling injury [3, 5]: 0%
- Time to 3.2 leaf [3, 5]: 14 days
- Uniformity of foliage growth at 3.2 leaf [3, 5]: 90%
- Uniformity of greening at 3.2 leaf [3, 5]: 95%
- Whiteness of root mat at 3.2 leaf [3, 5]: 90%
- Greenness at 3.2 leaf [3, 6]: 3 unit
- Seedling height at 3.2 leaf [3, 6]: 13 cm
- Seedling injury [3, 6]: 0%
- Time to 3.2 leaf [3, 6]: 14 days
- Uniformity of foliage growth at 3.2 leaf [3, 6]: 90%
- Uniformity of greening at 3.2 leaf [3, 6]: 95%
- Whiteness of root mat at 3.2 leaf [3, 6]: 90%
- Greenness at 3.2 leaf ([3]; treatment 5: 5 g ai/ha, 2-leaf): 3 unit
- Seedling height at 3.2 leaf ([3]; treatment 5: 5 g ai/ha, 2-leaf): 14 cm
- Seedling injury ([3]; treatment 5: 5 g ai/ha, 2-leaf): 0%
- Time to 3.2 leaf ([3]; treatment 5: 5 g ai/ha, 2-leaf): 13 days
- Uniformity of foliage growth at 3.2 leaf ([3]; treatment 5: 5 g ai/ha, 2-leaf): 95%
- Uniformity of greening at 3.2 leaf ([3]; treatment 5: 5 g ai/ha, 2-leaf): 95%
- Whiteness of root mat at 3.2 leaf ([3]; treatment 5: 5 g ai/ha, 2-leaf): 85%
- Greenness at 3.2 leaf [3, 7]: 2.8 unit
- Seedling height at 3.2 leaf [3, 7]: 14 cm
- Seedling injury [3, 7]: 3%
- Time to 3.2 leaf [3, 7]: 13 days
- Uniformity of foliage growth at 3.2 leaf [3, 7]: 90%
- Uniformity of greening at 3.2 leaf [3, 7]: 90%
- Whiteness of root mat at 3.2 leaf [3, 7]: 85%
- Greenness at 3.2 leaf [3, 8]: 2.5 unit
- Seedling height at 3.2 leaf [3, 8]: 14 cm
- Seedling injury [3, 8]: 8%
- Time to 3.2 leaf [3, 8]: 13 days
- Uniformity of foliage growth at 3.2 leaf [3, 8]: 90%
- Uniformity of greening at 3.2 leaf [3, 8]: 85%
- Whiteness of root mat at 3.2 leaf [3, 8]: 85%
- Greenness at 3.2 leaf ([3]; treatment 8: 5 g ai/ha, 3-leaf): 3 unit
- Seedling height at 3.2 leaf ([3]; treatment 8: 5 g ai/ha, 3-leaf): 14 cm
- Seedling injury ([3]; treatment 8: 5 g ai/ha, 3-leaf): 0%
- Time to 3.2 leaf ([3]; treatment 8: 5 g ai/ha, 3-leaf): 13 days
- Uniformity of foliage growth at 3.2 leaf ([3]; treatment 8: 5 g ai/ha, 3-leaf): 90%
- Uniformity of greening at 3.2 leaf ([3]; treatment 8: 5 g ai/ha, 3-leaf): 95%
- Whiteness of root mat at 3.2 leaf ([3]; treatment 8: 5 g ai/ha, 3-leaf): 90%
- Greenness at 3.2 leaf [3, 9]: 3 unit
- Seedling height at 3.2 leaf [3, 9]: 14 cm
- Seedling injury [3, 9]: 0%
- Time to 3.2 leaf [3, 9]: 13 days
- Uniformity of foliage growth at 3.2 leaf [3, 9]: 90%
- Uniformity of greening at 3.2 leaf [3, 9]: 95%
- Whiteness of root mat at 3.2 leaf [3, 9]: 90%
- Greenness at 3.2 leaf [3, 10]: 2.5 unit
- Seedling height at 3.2 leaf [3, 10]: 14 cm
- Seedling injury [3, 10]: 15%
- Time to 3.2 leaf [3, 10]: 13 days
- Uniformity of foliage growth at 3.2 leaf [3, 10]: 90%
- Uniformity of greening at 3.2 leaf [3, 10]: 85%
- Whiteness of root mat at 3.2 leaf [3, 10]: 85%
